Data published in ChEMBL document CHEMBL4507266, “Data for DCP probe BAY-784” (2021).

What was measured:
[1] = target: Serine/threonine-protein kinase OSR1 (Homo sapiens) (UniProt O95747); conditions: Compound concentration 1000.0 nM
[2] = target: Serine/threonine-protein kinase Nek11 (Homo sapiens) (UniProt Q8NG66); conditions: Compound concentration 1000.0 nM
[3] = target: Cyclin-dependent kinase 4 (Homo sapiens) (UniProt P11802); conditions: Compound concentration 1000.0 nM
[4] = target: Myosin light chain kinase, smooth muscle (Homo sapiens) (UniProt Q15746); conditions: Compound concentration 1000.0 nM
[5] = target: Bone morphogenetic protein receptor type-2 (Homo sapiens) (UniProt Q13873); conditions: Compound concentration 1000.0 nM
[6] = target: Myosin light chain kinase 2, skeletal/cardiac muscle (Homo sapiens) (UniProt Q9H1R3); conditions: Compound concentration 1000.0 nM
[7] = test system: Epidermal growth factor receptor (Homo sapiens), P00533 [L861Q]; conditions: Compound concentration 1000.0 nM
[8] = test system: Tyrosine-protein kinase ABL1 (Homo sapiens), P00519 [E255K]; conditions: Compound concentration 1000.0 nM
[9] = target: Proto-oncogene tyrosine-protein kinase ROS (Homo sapiens) (UniProt P08922); conditions: Compound concentration 1000.0 nM
[10] = target: RAF proto-oncogene serine/threonine-protein kinase (Homo sapiens) (UniProt P04049); conditions: Compound concentration 1000.0 nM
[11] = target: Serine/threonine-protein kinase D3 (Homo sapiens) (UniProt O94806); conditions: Compound concentration 1000.0 nM
[12] = target: Protein kinase C iota type (Homo sapiens) (UniProt P41743); conditions: Compound concentration 1000.0 nM
[13] = target: Tyrosine-protein kinase FRK (Homo sapiens) (UniProt P42685); conditions: Compound concentration 1000.0 nM
[14] = target: Homeodomain-interacting protein kinase 1 (Homo sapiens) (UniProt Q86Z02); conditions: Compound concentration 1000.0 nM
Sequence of Homeodomain-interacting protein kinase 1 (Homo sapiens) (Q86Z02 whole entry, looked up): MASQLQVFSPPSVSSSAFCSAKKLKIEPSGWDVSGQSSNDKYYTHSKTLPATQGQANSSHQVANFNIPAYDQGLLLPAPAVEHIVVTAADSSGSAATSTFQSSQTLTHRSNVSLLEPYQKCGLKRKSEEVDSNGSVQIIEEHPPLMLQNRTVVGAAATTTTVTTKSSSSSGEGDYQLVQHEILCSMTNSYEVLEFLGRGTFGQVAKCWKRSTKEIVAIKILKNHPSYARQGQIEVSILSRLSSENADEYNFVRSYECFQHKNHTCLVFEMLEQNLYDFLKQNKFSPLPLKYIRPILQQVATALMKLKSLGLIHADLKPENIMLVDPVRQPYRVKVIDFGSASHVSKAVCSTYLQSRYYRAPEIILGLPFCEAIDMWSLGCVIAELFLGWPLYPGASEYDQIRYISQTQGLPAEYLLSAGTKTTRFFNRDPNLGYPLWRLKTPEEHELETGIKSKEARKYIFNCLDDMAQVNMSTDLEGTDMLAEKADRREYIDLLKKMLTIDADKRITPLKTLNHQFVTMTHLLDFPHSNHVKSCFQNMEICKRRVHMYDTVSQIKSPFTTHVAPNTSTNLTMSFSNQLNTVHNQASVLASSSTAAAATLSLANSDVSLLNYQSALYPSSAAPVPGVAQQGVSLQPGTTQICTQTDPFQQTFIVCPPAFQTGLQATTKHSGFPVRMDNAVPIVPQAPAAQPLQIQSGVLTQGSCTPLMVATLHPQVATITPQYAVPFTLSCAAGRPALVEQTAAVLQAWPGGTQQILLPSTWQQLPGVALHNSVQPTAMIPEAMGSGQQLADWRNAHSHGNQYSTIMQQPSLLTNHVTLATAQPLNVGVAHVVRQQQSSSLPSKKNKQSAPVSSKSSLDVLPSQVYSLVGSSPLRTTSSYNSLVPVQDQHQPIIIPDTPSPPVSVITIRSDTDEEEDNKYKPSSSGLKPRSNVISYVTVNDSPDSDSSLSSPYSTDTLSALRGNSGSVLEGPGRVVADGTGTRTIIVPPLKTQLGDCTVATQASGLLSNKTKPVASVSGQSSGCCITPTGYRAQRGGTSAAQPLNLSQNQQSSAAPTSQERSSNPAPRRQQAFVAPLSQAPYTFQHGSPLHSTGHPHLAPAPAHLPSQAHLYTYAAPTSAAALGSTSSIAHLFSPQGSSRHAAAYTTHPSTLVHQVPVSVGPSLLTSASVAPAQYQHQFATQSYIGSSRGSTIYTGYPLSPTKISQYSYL

[15] = target: Serine/threonine-protein kinase PAK 2 (Homo sapiens) (UniProt Q13177); conditions: Compound concentration 1000.0 nM
[16] = target: Epithelial discoidin domain-containing receptor 1 (Homo sapiens) (UniProt Q08345); conditions: Compound concentration 1000.0 nM
Sequence of Epithelial discoidin domain-containing receptor 1 (Homo sapiens) (Q08345 whole entry, the tested form may be a part): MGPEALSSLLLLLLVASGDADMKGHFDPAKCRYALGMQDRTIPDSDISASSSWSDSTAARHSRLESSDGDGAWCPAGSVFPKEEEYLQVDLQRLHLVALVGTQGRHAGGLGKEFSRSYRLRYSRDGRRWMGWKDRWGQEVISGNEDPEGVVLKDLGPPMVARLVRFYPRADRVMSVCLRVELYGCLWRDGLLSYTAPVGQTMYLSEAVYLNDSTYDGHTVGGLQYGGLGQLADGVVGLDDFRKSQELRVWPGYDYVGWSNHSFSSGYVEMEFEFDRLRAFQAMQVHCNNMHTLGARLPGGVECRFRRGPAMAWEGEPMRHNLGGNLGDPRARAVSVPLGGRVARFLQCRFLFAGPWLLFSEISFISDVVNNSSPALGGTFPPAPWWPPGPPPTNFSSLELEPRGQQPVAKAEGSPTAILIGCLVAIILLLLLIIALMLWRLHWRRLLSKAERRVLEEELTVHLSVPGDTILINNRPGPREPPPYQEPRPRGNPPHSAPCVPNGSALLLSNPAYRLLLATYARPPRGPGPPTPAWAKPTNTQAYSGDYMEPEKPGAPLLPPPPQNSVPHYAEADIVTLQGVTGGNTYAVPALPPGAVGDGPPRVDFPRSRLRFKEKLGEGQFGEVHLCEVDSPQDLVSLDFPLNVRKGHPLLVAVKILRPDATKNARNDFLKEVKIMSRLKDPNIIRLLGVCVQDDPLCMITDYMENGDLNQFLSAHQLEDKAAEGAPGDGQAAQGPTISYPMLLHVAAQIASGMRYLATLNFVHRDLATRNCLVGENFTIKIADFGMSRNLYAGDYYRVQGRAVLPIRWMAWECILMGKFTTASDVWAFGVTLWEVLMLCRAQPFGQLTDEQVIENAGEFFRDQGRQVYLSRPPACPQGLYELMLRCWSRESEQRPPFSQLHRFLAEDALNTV

[17] = target: Ephrin type-A receptor 4 (Homo sapiens) (UniProt P54764); conditions: Compound concentration 1000.0 nM
[18] = target: Cyclin-dependent kinase-like 2 (Homo sapiens) (UniProt Q92772); conditions: Compound concentration 1000.0 nM
[19] = target: Protein kinase C theta type (Homo sapiens) (UniProt Q04759); conditions: Compound concentration 1000.0 nM
[20] = target: STE20/SPS1-related proline-alanine-rich protein kinase (Homo sapiens) (UniProt Q9UEW8); conditions: Compound concentration 1000.0 nM
[21] = target: Citron Rho-interacting kinase (Homo sapiens) (UniProt O14578); conditions: Compound concentration 1000.0 nM
[22] = target: Ephrin type-B receptor 6 (Homo sapiens) (UniProt O15197); conditions: Compound concentration 1000.0 nM
[23] = target: Tyrosine-protein kinase Tec (Homo sapiens) (UniProt P42680); conditions: Compound concentration 1000.0 nM
[24] = target: Cyclin-dependent kinase 11B (Homo sapiens) (UniProt P21127); conditions: Compound concentration 1000.0 nM
[25] = target: Mitogen-activated protein kinase kinase kinase kinase 3 (Homo sapiens) (UniProt Q8IVH8); conditions: Compound concentration 1000.0 nM
[26] = target: Protein kinase C epsilon type (Homo sapiens) (UniProt Q02156); conditions: Compound concentration 1000.0 nM
Sequence of Protein kinase C epsilon type (Homo sapiens) (Q02156 whole entry): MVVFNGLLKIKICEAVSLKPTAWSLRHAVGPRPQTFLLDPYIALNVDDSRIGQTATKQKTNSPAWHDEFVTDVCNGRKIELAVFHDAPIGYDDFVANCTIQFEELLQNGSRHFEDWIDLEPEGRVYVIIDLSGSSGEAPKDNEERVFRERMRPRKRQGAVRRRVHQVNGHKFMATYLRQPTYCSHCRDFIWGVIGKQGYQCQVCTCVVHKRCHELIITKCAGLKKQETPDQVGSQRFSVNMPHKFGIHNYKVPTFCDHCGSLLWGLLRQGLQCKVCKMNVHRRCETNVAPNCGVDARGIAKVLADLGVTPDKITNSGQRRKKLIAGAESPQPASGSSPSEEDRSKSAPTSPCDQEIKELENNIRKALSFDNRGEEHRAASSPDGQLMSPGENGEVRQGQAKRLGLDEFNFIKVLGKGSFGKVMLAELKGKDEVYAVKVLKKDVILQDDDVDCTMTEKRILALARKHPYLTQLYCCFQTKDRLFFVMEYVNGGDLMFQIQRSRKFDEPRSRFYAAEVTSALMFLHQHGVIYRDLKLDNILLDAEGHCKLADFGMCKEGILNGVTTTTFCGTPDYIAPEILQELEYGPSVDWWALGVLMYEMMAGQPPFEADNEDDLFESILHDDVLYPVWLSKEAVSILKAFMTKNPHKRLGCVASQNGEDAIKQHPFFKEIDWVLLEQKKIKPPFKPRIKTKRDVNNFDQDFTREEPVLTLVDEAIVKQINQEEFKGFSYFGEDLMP

[27] = target: Serine/threonine-protein kinase ULK3 (Homo sapiens) (UniProt Q6PHR2); conditions: Compound concentration 1000.0 nM
[28] = target: Cyclin-G-associated kinase (Homo sapiens) (UniProt O14976); conditions: Compound concentration 1000.0 nM
[29] = test system: Tyrosine-protein kinase ABL1 (Homo sapiens), P00519 [T315I]; conditions: Compound concentration 1000.0 nM
[30] = target: Insulin receptor (Homo sapiens) (UniProt P06213); conditions: Compound concentration 1000.0 nM
Sequence of Insulin receptor (Homo sapiens) (P06213 28-758 limits assumed): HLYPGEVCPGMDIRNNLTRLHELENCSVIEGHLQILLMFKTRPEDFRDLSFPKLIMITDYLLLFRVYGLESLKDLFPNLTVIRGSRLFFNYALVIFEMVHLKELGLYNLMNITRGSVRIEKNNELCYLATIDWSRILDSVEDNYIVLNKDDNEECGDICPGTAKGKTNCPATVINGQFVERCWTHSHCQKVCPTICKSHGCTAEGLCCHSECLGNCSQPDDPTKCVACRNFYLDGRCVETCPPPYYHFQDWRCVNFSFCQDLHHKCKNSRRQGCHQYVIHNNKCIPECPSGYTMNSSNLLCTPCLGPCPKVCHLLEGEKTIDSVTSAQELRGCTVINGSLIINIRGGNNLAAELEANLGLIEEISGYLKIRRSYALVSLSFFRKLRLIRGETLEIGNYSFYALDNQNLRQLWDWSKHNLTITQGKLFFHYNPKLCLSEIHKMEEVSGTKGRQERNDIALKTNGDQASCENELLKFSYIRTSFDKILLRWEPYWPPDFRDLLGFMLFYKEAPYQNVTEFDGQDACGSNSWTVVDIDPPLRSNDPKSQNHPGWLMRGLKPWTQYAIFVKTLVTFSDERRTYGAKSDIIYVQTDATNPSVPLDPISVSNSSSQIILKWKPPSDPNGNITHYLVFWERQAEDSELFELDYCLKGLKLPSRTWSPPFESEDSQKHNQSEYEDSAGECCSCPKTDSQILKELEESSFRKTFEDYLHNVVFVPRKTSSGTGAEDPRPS
Sequence of Insulin receptor (Homo sapiens) (P06213 763-1382 limits assumed): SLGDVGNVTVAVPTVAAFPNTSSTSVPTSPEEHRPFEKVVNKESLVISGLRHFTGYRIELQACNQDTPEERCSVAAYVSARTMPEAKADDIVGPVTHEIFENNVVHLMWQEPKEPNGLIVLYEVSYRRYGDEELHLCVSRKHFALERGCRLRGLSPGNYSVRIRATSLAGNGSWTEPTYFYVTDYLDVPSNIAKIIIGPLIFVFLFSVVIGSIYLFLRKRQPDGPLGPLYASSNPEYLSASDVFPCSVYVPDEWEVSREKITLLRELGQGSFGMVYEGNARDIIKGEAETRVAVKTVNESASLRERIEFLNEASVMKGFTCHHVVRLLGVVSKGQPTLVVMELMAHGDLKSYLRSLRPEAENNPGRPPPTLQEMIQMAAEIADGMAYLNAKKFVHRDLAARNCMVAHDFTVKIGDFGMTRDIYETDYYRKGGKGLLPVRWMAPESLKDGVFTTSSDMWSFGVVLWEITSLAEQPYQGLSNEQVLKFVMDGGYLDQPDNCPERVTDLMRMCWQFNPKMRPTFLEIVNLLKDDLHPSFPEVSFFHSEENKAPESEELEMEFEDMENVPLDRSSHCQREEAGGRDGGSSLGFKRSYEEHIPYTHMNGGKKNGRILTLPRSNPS

[31] = target: Delta-type opioid receptor (Homo sapiens) (UniProt P41143); conditions: Compound concentration 10.0 uM
[32] = target: Bone morphogenetic protein receptor type-1A (Homo sapiens) (UniProt P36894); conditions: Compound concentration 1000.0 nM
[33] = target: Serine/threonine-protein kinase RIO1 (Homo sapiens) (UniProt Q9BRS2); conditions: Compound concentration 1000.0 nM
[34] = target: Phosphatidylinositol 4,5-bisphosphate 3-kinase catalytic subunit gamma isoform (Homo sapiens) (UniProt P48736); conditions: Compound concentration 1000.0 nM
[35] = target: Serine/threonine-protein kinase 32B (Homo sapiens) (UniProt Q9NY57); conditions: Compound concentration 1000.0 nM
[36] = target: Dual specificity mitogen-activated protein kinase kinase 4 (Homo sapiens) (UniProt P45985); conditions: Compound concentration 1000.0 nM
[37] = target: Proto-oncogene tyrosine-protein kinase receptor Ret (Homo sapiens) (UniProt P07949); conditions: Compound concentration 1000.0 nM
[38] = test system: Receptor-type tyrosine-protein kinase FLT3 (Homo sapiens), P36888 [D835Y]; conditions: Compound concentration 1000.0 nM
[39] = target: Kappa-type opioid receptor (Homo sapiens) (UniProt P41145); conditions: Compound concentration 10.0 uM
[40] = test system: Epidermal growth factor receptor (Homo sapiens), P00533 [T790M]; conditions: Compound concentration 1000.0 nM
[41] = target: Ephrin type-B receptor 4 (Homo sapiens) (UniProt P54760); conditions: Compound concentration 1000.0 nM
[42] = target: AP2-associated protein kinase 1 (Homo sapiens) (UniProt Q2M2I8); conditions: Compound concentration 1000.0 nM
[43] = target: Protein kinase C eta type (Homo sapiens) (UniProt P24723); conditions: Compound concentration 1000.0 nM
Sequence of Protein kinase C eta type (Homo sapiens) (P24723 whole entry): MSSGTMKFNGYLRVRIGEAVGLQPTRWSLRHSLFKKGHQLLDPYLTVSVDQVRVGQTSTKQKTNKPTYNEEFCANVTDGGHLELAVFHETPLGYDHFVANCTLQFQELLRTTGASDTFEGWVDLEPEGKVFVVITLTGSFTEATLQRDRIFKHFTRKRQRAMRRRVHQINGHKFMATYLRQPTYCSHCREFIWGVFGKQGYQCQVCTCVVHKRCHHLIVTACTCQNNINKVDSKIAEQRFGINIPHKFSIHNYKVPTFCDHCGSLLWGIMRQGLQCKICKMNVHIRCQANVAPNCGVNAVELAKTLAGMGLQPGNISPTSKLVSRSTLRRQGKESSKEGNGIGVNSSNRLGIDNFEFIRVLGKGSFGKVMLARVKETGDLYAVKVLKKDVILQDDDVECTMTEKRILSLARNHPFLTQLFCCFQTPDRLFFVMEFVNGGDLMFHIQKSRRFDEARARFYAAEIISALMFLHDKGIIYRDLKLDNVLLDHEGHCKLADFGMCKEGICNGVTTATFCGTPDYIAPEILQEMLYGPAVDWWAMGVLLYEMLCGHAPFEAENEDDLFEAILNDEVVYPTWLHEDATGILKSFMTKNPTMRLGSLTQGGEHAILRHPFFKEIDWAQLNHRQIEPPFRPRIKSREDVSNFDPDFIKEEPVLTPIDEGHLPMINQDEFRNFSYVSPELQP

[44] = target: Angiopoietin-1 receptor (Homo sapiens) (UniProt Q02763); conditions: Compound concentration 1000.0 nM
[45] = target: Serine/threonine-protein kinase SIK2 (Homo sapiens) (UniProt Q9H0K1); conditions: Compound concentration 1000.0 nM
[46] = test system: Tyrosine-protein kinase ABL1 (Homo sapiens), P00519 [Q252H]; conditions: Compound concentration 1000.0 nM

O=C(NCc1ncc(C(F)(F)F)cc1Cl)c1ccc2c(c1)C1(CCS(=O)(=O)CC1)[C@H](C1CC1)N2S(=O)(=O)c1ccc(F)cc1 [BAY-784]
inactive: residual activity [1] 87% | residual activity [2] 100% | residual activity [3] 93% | residual activity [4] 77% | residual activity [5] 80% | residual activity [6] 100% | residual activity [7] 84% | residual activity [8] 80% | residual activity [9] 100% | residual activity [10] 100% | residual activity [11] 100% | residual activity [12] 81% | residual activity [13] 100% | residual activity [14] 83% | residual activity [15] 100% | residual activity [16] 100% | residual activity [17] 100% | residual activity [18] 100% | residual activity [19] 100% | residual activity [20] 84% | residual activity [21] 100% | residual activity [22] 80% | residual activity [23] 100% | residual activity [24] 100% | residual activity [25] 100% | residual activity [26] 69% | residual activity [27] 85% | residual activity [28] 97% | residual activity [29] 90% | residual activity [30] 100% | inhibition [31] -0.34% | residual activity [32] 100% | residual activity [33] 100% | residual activity [34] 82% | residual activity [35] 100% | residual activity [36] 75% | residual activity [37] 98% | residual activity [38] 100% | inhibition [39] 14.4% | residual activity [40] 100% | residual activity [41] 100% | residual activity [42] 99% | residual activity [43] 100% | residual activity [44] 100% | residual activity [45] 96% | residual activity [46] 100%

O=C(NCc1ncc(C(F)(F)F)cc1Cl)c1ccc2c(c1)C1(CCS(=O)(=O)CC1)[C@@H](C1CC1)N2S(=O)(=O)c1ccc(F)cc1 [BAY-786]
inactive: residual activity [1] 71% | residual activity [2] 100% | residual activity [3] 80% | residual activity [4] 74% | residual activity [5] 73% | residual activity [6] 83% | residual activity [7] 76% | residual activity [8] 100% | residual activity [9] 100% | residual activity [10] 100% | residual activity [11] 100% | residual activity [12] 100% | residual activity [13] 99% | residual activity [14] 70% | residual activity [15] 84% | residual activity [16] 100% | residual activity [17] 97% | residual activity [18] 100% | residual activity [19] 95% | residual activity [20] 77% | residual activity [21] 84% | residual activity [22] 94% | residual activity [23] 100% | residual activity [24] 100% | residual activity [25] 100% | residual activity [26] 76% | residual activity [27] 69% | residual activity [28] 96% | residual activity [29] 84% | residual activity [30] 100% | inhibition [31] -2.65% | residual activity [32] 100% | residual activity [33] 78% | residual activity [34] 95% | residual activity [35] 96% | residual activity [36] 76% | residual activity [37] 100% | residual activity [38] 100% | inhibition [39] 4.54% | residual activity [40] 100% | residual activity [41] 94% | residual activity [42] 100% | residual activity [43] 96% | residual activity [44] 96% | residual activity [45] 100% | residual activity [46] 100%
